Calls of active or inactive are those of the source. No cut-off for these calls is given here.

The target of assay [1] is T1, NAD-dependent protein deacetylase sirtuin-1 (Homo sapiens) (UniProt Q96EB6).
T1 sequence (whole entry): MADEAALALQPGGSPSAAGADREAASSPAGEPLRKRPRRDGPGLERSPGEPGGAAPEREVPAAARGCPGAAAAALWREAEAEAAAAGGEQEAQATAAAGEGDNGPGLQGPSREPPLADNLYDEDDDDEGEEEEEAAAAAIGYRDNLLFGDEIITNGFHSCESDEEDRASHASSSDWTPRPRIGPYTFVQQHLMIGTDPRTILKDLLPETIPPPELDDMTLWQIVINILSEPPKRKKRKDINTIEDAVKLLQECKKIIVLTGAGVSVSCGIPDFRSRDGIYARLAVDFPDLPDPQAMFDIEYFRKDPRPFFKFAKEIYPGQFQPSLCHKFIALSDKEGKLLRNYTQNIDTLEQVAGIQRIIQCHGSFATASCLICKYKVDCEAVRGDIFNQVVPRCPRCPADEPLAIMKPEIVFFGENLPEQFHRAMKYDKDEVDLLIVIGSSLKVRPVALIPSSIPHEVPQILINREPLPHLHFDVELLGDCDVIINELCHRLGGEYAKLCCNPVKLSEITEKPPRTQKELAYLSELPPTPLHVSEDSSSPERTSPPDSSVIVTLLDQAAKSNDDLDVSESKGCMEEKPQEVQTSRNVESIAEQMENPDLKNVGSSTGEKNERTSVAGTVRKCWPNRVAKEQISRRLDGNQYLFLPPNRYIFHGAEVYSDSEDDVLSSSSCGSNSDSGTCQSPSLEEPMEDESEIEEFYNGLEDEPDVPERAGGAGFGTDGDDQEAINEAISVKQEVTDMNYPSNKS
In words: Binding affinity to SIRT1 in human HepG2 cells assessed as increase in thermal stabilization of protein at 320 uM pretreated with compound for 30 mins followed by incubation at 40 to 65 degC for 3 mins by CETSA-WB analysis. The format is cell-based. The following applies: filed as activator, time 33.0 min.

The target of assay [2] is T1, NAD-dependent protein deacetylase sirtuin-1 (Homo sapiens). Nature of the assay: Binding affinity to SIRT1 in human HepG2 cells assessed as increase in thermal stability of protein pretreated with compound for 30 mins followed by incubation at 50 degC for 3 mins by CETSA-WB analysis. The following applies: filed as activator, dose 80-320 µM, time 33.0 min. It counts as cell-based.

Assay [3] relates to HepG2. In words: Recovery of mitochondrial biogenesis in 40% FBS-induced steatosis human HepG2 cells model assessed as increase in mitochondrial COX1 protein expression incubated for 24 hrs by western blot analysis. The format is functional, cell-based. The following applies: dose 0.2-5 µM. (Immunoblotting shows a protein as a band on a membrane.)
Assay [4] deals with HepG2. In words: Recovery of mitochondrial biogenesis in 40% FBS-induced steatosis human HepG2 cells model assessed as increase in mitochondrial ND6 mRNA expression incubated for 24 hrs by qRT-PCR analysis. The format is functional, cell-based. The following applies: dose 0.2-5 µM. On the technique in general: Quantitative PCR measures a nucleic acid by following its amplification.

In assay [5] the test system is HepG2. In words: Inhibition of liver injury in 40% FBS-induced steatosis human HepG2 cells model assessed as decrease in LDH level at 0.2 to 5 uM incubated in steatosis inducing DMEM with 40% FBS medium for 24 hrs followed by compound treatment. The following applies: dose 0.2-5 µM. It counts as functional, cell-based.
The test system of assay [6] is HepG2. Nature of the assay: Inhibition of liver injury in 40% FBS-induced steatosis human HepG2 cells model assessed as decrease in AST level at 0.2 to 5 uM incubated with compound for 24 hrs followed by replacement with steatosis inducing DMEM with 40% FBS medium. The following applies: dose 0.2-5 µM. The format is functional, cell-based.
For assay [7], the system named is HepG2. Nature of the assay: Inhibition of liver injury in 40% FBS-induced steatosis human HepG2 cells model assessed as decrease in GDH level at 0.2 to 5 uM incubated with compound for 24 hrs followed by replacement with steatosis inducing DMEM with 40% FBS medium. The format is functional, cell-based. The following applies: dose 0.2-5 µM.
For assay [8], the system named is HepG2. In words: Inhibition of liver injury in 40% FBS-induced steatosis human HepG2 cells model assessed as increase in liver protection index by measuring increase in ratio of GSH to GSSG at 0.2 to 5 uM incubated in steatosis inducing DMEM with 40% FBS medium for 24 hrs followed by compound treatment. The format is functional, cell-based. The note with it: dose 0.2-5 µM.

The subject of assay [9] is Rattus norvegicus. In words: Hepatoprotective activity against high fat diet-fed NAFLD Sprague-Dawley rat model assessed as increase in serum SOD level administered intragastrically via gavage for 4 weeks. The format is functional, organism-based. The following applies: dose 12.3-61.4 mg/kg, route ig.
Assay [10] relates to Rattus norvegicus. Nature of the assay: Hepatoprotective activity against high fat diet-fed NAFLD Sprague-Dawley rat model assessed as increase in serum GSH level administered intragastrically via gavage for 4 weeks. It counts as functional, organism-based. The following applies: dose 12.3-61.4 mg/kg, route ig.
The test system of assay [11] is HepG2. Nature of the assay: Induction of SIRT1/PGC1alpha interaction in human HepG2 cells at 5 umol/L by co-immunoprecipitataion analysis. The following applies: filed as activator, dose 5.0 µmol/L. It counts as cell-based.
The subject of assay [12] is HepG2. In words: Induction of mitochondrial biogenesis in human HepG2 cells assessed as TFAM mRNA expression incubated for 24 hrs in presence of SIRT1 inhibitor, EX527 by qRT-PCR analysis. The format is functional, cell-based.

As to `CC(C)(C)c1ccc(C(=O)c2ccc(O)c(O)c2)cc1`, the outcome in assay [1], in assay [9], in [10] and in assay [11] was Active. The Activity result in assay [2], in assay [3] and in assay [4] was “Dose-Dependent Effect” in each case. The inhibition entry in assay [5], in [6], in assay [7] and in assay [8] was “Active” throughout. Further, in assay [12], the outcome was inactive.
